Tests used:
[1] = molecular target: T1, human TLR7 (wild type sequence) (Homo sapiens, UniProt Q9NYK1); assay: TLR7 cellular NFκB-luc reporter assay, wild type TLR7; assay type: cell-based; design: unit not given here; settings: lowest effective concentration, wild type TLR7 (compounds 74 onward)
T1 construct: expressed in transfected cells; host or cells: HEK293
T1 sequence (Q9NYK1 27-1049): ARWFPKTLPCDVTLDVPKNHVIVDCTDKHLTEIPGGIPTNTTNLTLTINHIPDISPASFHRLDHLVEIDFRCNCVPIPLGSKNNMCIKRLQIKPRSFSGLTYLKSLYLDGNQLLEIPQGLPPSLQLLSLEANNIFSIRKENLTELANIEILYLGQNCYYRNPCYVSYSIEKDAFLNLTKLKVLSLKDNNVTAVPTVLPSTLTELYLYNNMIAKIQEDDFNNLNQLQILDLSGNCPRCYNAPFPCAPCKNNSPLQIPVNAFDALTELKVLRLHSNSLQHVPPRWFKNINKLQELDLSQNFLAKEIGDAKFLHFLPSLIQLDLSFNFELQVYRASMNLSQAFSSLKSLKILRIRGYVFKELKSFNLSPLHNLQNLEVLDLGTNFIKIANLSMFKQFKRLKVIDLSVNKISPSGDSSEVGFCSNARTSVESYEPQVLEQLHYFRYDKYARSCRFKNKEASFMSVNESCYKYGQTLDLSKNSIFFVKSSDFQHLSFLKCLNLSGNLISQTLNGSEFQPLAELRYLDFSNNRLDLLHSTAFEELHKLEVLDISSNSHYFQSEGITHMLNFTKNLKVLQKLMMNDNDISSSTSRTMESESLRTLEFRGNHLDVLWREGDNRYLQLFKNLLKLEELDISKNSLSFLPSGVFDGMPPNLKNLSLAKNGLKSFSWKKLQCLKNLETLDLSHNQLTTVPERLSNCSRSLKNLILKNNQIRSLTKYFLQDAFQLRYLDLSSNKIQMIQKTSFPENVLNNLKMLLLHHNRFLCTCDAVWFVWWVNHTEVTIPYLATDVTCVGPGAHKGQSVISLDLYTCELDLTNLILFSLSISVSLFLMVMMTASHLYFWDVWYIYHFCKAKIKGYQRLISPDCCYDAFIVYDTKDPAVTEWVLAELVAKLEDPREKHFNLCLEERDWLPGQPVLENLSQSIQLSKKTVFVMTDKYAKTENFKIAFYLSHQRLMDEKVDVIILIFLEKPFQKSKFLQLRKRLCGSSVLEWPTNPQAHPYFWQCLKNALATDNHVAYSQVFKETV
Protocol: (§1) The ability of compounds to activate human TLR7 and/or TLR8 was assessed in a cellular reporter assay using HEK293 cells transiently transfected with a TLR7 or TLR8 expression vector and NFκB-luc reporter construct. In one instance the TLR expression construct expresses the respective wild type sequence or a mutant sequence comprising a deletion in the second leucine-rich repeat of the TLR.
(§2) Briefly, HEK293 cells were grown in culture medium (DMEM supplemented with 10% FCS and 2 mM Glutamine). For transfection of cells in 10 cm dishes, cells were detached with Trypsin-EDTA, transfected with a mix of CMV-TLR7 or TLR8 plasmid (750 ng), NFκB-luc plasmid (375 ng) and a transfection reagent and incubated for 48 hours at 37° C. in a humidified 5% CO2 atmosphere. Transfected cells were then detached with Trypsin-EDTA, washed in PBS and resuspended in medium to a density of 1.67×10^5 cells/mL. Thirty microliters of cells were then dispensed into each well in 384-well plates, where 10 μL of compound in 4% DMSO was already present. Following 6 hours incubation at 37° C., 5% CO2, the luciferase activity was determined by adding 15 μl of Steady Lite Plus substrate (Perkin Elmer) to each well and readout performed on a ViewLux ultraHTS microplate imager (Perkin Elmer). Dose response curves were generated from measurements performed in quadruplicates. Lowest effective concentrations (LEC) values, defined as the concentration that induces an effect which is at least two fold above the standard deviation of the assay, were determined for each compound.

[2] = molecular target: T2, human TLR8 (wild type sequence) (Homo sapiens, UniProt Q9NR97); assay: TLR8 cellular NFκB-luc reporter assay, wild type TLR8; assay type: cell-based; design: unit not given here; settings: lowest effective concentration, wild type TLR8 (compounds 74 onward)
T2 construct: expressed in transfected cells; host or cells: HEK293
T2 sequence (Q9NR97 27-1041): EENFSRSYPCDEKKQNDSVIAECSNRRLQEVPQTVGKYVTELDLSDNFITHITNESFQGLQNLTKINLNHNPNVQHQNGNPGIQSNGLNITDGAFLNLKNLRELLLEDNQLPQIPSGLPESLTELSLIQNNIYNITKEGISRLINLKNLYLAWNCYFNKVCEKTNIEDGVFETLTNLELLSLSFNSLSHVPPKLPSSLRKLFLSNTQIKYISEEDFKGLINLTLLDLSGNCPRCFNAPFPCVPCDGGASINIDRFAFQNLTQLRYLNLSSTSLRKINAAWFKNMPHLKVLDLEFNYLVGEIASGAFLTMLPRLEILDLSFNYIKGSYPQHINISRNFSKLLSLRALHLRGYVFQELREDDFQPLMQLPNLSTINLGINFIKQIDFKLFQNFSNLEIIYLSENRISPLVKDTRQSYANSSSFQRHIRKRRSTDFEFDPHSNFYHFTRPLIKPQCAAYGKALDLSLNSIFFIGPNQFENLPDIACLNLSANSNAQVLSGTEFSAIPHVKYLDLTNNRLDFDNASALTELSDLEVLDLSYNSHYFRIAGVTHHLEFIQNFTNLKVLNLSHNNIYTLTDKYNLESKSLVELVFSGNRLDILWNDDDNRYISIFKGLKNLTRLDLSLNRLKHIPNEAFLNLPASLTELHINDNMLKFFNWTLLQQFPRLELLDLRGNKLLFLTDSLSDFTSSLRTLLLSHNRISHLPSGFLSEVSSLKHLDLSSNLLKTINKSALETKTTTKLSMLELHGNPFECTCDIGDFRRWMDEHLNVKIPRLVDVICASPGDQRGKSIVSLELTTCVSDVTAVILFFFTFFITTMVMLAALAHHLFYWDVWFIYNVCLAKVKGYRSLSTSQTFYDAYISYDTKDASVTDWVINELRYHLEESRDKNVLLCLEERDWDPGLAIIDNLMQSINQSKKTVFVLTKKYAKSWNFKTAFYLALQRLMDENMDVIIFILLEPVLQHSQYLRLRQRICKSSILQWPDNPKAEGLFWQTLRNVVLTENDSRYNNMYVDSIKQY
Protocol: as §1, §2

[3] = tested on: HCV replicon in Huh-7 luc/neo cells; assay: Suppression of HCV replicon replication by conditioned media from compound-treated PBMC; assay type: cell-based, HCV type 1 b; settings: Hepatitis C virus; conditioned media from compound-treated PBMC on Huh-7 luc/neo replicon cells (compounds 74 onward); read-out: PBMC HUH-7 EC50
Protocol: Activation of human TLR7 results in robust production of interferon by plasmacytoid dendritic cells present in human blood. The potential of compounds to induce interferon was evaluated by looking at the antiviral activity in the HCV replicon system upon incubation with conditioned media from peripheral blood mononuclear cells (PBMC). […] The assay utilized the stably transfected cell line Huh-7 luc/neo harboring an RNA encoding a bicistronic expression construct comprising the wild type NS3-NS5B regions of HCV type 1 b translated from an Internal Ribosome Entry Site (IRES) from encephalomyocarditis virus (EMCV), preceded by a reporter gene (Firefly-luciferase) and a selectable marker gene (neoR, neomycine phosphotransferase). The construct is flanked by 5′ and 3′ NTRs (non-translated regions) from HCV type 1 b. Continued culture of the replicon cells in the presence of G418 (neoR) is dependent on the replication of the HCV RNA. The stably transfected replicon cells that replicate HCV RNA autonomously and to high levels, encoding inter alia luciferase, were used for profiling of the conditioned cell culture media.
Briefly, PBMCs were prepared from buffy coats of at least two donors using a standard Ficoll centrifugation protocol. Isolated PBMCs were resuspended in RPMI medium supplemented with 10% human AB serum and 2×10^5 cells/well were dispensed into 384-well plates containing compounds (70 μL total volume). After overnight incubation, 10 μL of supernatant was transferred to 384-well plates containing 2.2×10^3 replicon cells/well in 30 μL (plated the day before). Following 24 hours of incubation, replication was measured by assaying luciferase activity using 40 μL/well Steady Lite Plus substrate (Perkin Elmer) and measured with ViewLux ultraHTS microplate imager (Perkin Elmer). […] Recombinant interferon α-2a (Roferon-A) was used as a standard control compound.

Compound | TLR 7 wt LEC [1] | TLR 8 wt LEC [2] | EC50 [3]
CCCCNc1nc(N)ncc1OCc1cc(C)n(C)n1 [Compound 117] | 0.335 | 1.120 | 88 nM
CCCCNc1nc(N)ncc1OCc1c(C)noc1-c1ccccc1 [Compound 118] | 1.670 | 3.710 | 976 nM
CCCCNc1nc(N)ncc1OCc1ccc(C(F)(F)F)o1 [Compound 119] | 1.720 | 6.120 | 193 nM
CCCCNc1nc(N)ncc1OCc1ccc(C(=O)OC)o1 [Compound 120] | 0.649 | 3.910 | 273 nM
CCCCNc1nc(N)ncc1OCc1ccc(C(F)(F)F)nc1 [Compound 121] | 0.797 | 3.020 | 272 nM
CCCCNc1nc(N)ncc1OCc1cccc(C)n1 [Compound 122] | 0.118 | 0.628 | 25 nM
CCCCCNc1nc(N)nc(C)c1OCc1ccccc1 [Compound 124] | 15.610 | 13.650 | > 23800 nM
CCC[C@@H](CO)Nc1nc(N)ncc1OCCCc1ccccc1 [Compound 125] | 1.630 | 0.598 | 336 nM
CCCCNc1nc(N)ncc1OCCOc1ccc(C#N)cc1 [Compound 126] | 1.000 | 1.020 | 264 nM
CCCCNc1nc(N)ncc1OCCOc1cccc(OC)c1 [Compound 127] | 1.030 | 2.050 | 256 nM
CCCCNc1nc(N)ncc1OCCOc1ccnc2ccccc12 [Compound 128] | 2.430 | 3.740 | 284 nM
CCCCNc1nc(N)ncc1OCCOc1cc(OC)cc(OC)c1 [Compound 129] | 2.090 | 3.250 | 432 nM
CCCCNc1nc(N)ncc1OCCOc1cccc(OC)c1OC [Compound 130] | 0.676 | 6.560 | 103 nM
CCCCNc1nc(N)ncc1OCCOc1ccccc1C(F)(F)F [Compound 131] | 1.700 | >25 | 806 nM
CCCCNc1nc(N)ncc1OCCOc1ccc(C(=O)OC)cc1OC [Compound 132] | 1.470 | >25 | 634 nM
CCCCNc1nc(N)ncc1OCCOc1cc(OC)c(OC)c(OC)c1 [Compound 133] | 1.500 | 3.090 | 585 nM
CCCCNc1nc(N)ncc1OCCOc1ccc(C(=O)OC)c(OC)c1 [Compound 134] | 2.010 | 2.110 | 935 nM
CCCCNc1nc(N)ncc1OCCOc1ccc(C(F)(F)F)cc1 [Compound 135] | 3.230 | 1.970 | 3190 nM
CCCCNc1nc(N)ncc1OCCOc1ccnc2ccsc12 [Compound 136] | 2.000 | 2.030 | 275 nM
CCCCNc1nc(N)ncc1OCc1cccc(CC(=O)OC)c1 [Compound 137] | 0.757 | 1.760 | 22800 nM
CCCCNc1nc(N)ncc1OCc1cccc2c1OCCCO2 [Compound 138] | 1.040 | 1.050 | 570 nM
CCCCNc1nc(N)ncc1OCc1nccc(OCC(F)(F)F)c1C [Compound 139] | 0.025 | 0.286 | 9 nM
CCCCNc1nc(N)ncc1OCCOc1ccc(OC)c(OC)c1 [Compound 140] | 0.617 | 2.250 | 175 nM
CCCCNc1nc(N)ncc1OCCOc1ccnc2cc(OC)ccc12 [Compound 141] | 4.360 | 0.704 | 733 nM
CCCCNc1nc(N)ncc1OCCOc1cc(C(C)C)nc2cc(OC)ccc12 [Compound 142] | >25 | 2.370 | 19700 nM
CCCCNc1nc(N)ncc1OCCOc1cccnc1 [Compound 143] | 1.810 | 0.880 | 443 nM
CCCCNc1nc(N)ncc1OCCn1ccc(=O)c2ccc(OC)cc21 [Compound 144] | 13.010 | 20.790 | 1320 nM
CCCC[C@H](CCO)Nc1nc(N)ncc1OCc1ccccc1 [Compound 145] | 2.140 | 1.920 | 632 nM

Reference: US11541050B2, “Pyrimidine derivatives for the treatment of viral infections” (JANSSEN SCIENCES IRELAND UC, priority 2011, dated 2023)
